Data taken from US12599582B2, “Pyrrole compounds” (ALIGOS THERAPEUTICS, INC., priority 2019, dated 2026).
Where two headings read alike, the source gives them in different places.

Tested on: HBV
Test: HBV-DNA Antiviral Assay Using HepG2.2.15 Cells (extracellular HBV DNA by qPCR)
Assay type: cell-based, hepatitis B virus (HBV)
Settings: HBV DNA inhibition, HepG2.2.15 cells, extracellular HBV DNA by qPCR, read-out: EC50
Description: The following assay procedure describes the HBV antiviral assay. This assay uses HepG2.2.15 cells, which have been transfected with HBV genome, and extracellular HBV DNA quantification as endpoint. Cell viability is assessed in parallel by measuring the intracellular ATP content using the CellTiter-Glo® reagent from Promega.
On day 0, HepG2.2.15 cells were seeded in 96-well plates at a density of 6.0×10^4 cells/well (0.1 mL/well). The cells were incubated at 37° C. and 5% CO2.
On day 1, the test articles were diluted and added to cell culture wells (8 concentrations, 4-fold dilution, in duplicate). GLS4, Tenofovir and Sorafenib were used as reference compounds. 100 μL of culture medium containing the compounds was added to the plate, and the final total volume per well was 200 μL. The final concentration of DMSO in the culture medium was 0.5%. The plate map of compound treatment is shown below. The cells were cultured at 37° C. and 5% CO2 for 3 days.
On day 4, the plates were refreshed with culture media with compounds.
On day 7, cell viability was assessed using the CellTiter-Glo®, and the cell culture supernatants were collected for determination of HBV DNA by qPCR.
Extracellular DNA was isolated with QIAamp 96 DNA Blood Kit per the manufacturer's manual. HBV DNA was then quantified by qPCR with HBV specific primers and probes as specified in Table 1 using the FastStart Universal MasterMix from Roche on an ABI-7900HT. The PCR cycle program consisted of 95° C. for 10 min, followed by 40 cycles at 95° C. for 15 sec and 60° C. for 1 min.
A DNA standard was prepared by dilution of the pAAV2 HBV1.3 plasmid with concentrations ranging from 10 to 1×10^7 copies/uL and used to generate a standard curve by plotting Ct value vs. the concentration of the HBV plasmid DNA standard. The quantity of HBV DNA in each sample was determined by interpolating from the standard curve.
Cell viability was calculated as follows: % Cell viability=(luminescence value of test sample−average luminescence value of blank)/(average luminescence value of 0.5% DMSO control−average luminescence of blank)×100%. HBV DNA inhibition was calculated as follows: 100−(HBV DNA copy number of test sample−HBV DNA copy number of ETV)/HBV DNA copy number of 0.5% DMSO control−HBV DNA copy number of ETV)×100%. The CC50, EC50 and EC90 values were determined by dose-response curves fitted by GraphPad Prism using “log (agonist) vs. response—Variable slope”.

Row | SMILES | EC50 (Hepatitis B virus) [nM] | EC50 [nM]
1 | Cc1c(C(=O)C(=O)NC(C)(C)c2cn(C)cn2)c(C)n(C)c1C(=O)Nc1ccc(F)c(C(F)(F)F)c1 [Compound 149, N-[4-fluoro-3-(trifluoromethyl)phenyl]-1,3,5-trimethyl-4-[2-[[1-methyl-1-(1-methylimidazol-4-yl)ethyl]amino]-2-oxo-acetyl]pyrrole-2-carboxamide] | 100 to 1000 | –
2 | C#C[C@@](C)(CO)NC(=O)C(=O)c1c(C)c(C(=O)Nc2ccc(F)c(C#N)c2)n(C)c1C [Compound 64b, N-(3-cyano-4-fluoro-phenyl)-1,3,5-trimethyl-4-[2-oxo-2-[[(1S)-1-(hydroxymethyl)-1-methyl-prop-2-ynyl]amino]acetyl]pyrrole-2-carboxamide] | 1 to 10 | –
3 | C#C[C@H](COC)NC(=O)C(=O)c1c(C)c(C(=O)Nc2ccc(F)c(C#N)c2)n(C)c1C [Compound 28b, N-(3-cyano-4-fluoro-phenyl)-4-[2-[[(1R)-1-(methoxymethyl)prop-2-ynyl]amino]-2-oxo-acetyl]-1,3,5-trimethyl-pyrrole-2-carboxamide] | 1 to 10 | –
4 | Cc1c(C(=O)C(=O)NC(C)(C)c2ccc3[nH]cnc3c2)c(C)n(C)c1C(=O)Nc1ccc(F)c(C#N)c1 [Compound 160, 4-[2-[[1-(1H-benzimidazol-5-yl)-1-methyl-ethyl]amino]-2-oxo-acetyl]-N-(3-cyano-4-fluoro-phenyl)-1,3,5-trimethyl-pyrrole-2-carboxamide] | 1 to 10 | –
5 | C#C[C@@H](NC(=O)C(=O)c1c(C)c(C(=O)Nc2ccc(F)c(C#N)c2)n(C)c1C)C(C)(C)C [Compound 30b, N-(3-cyano-4-fluoro-phenyl)-1,3,5-trimethyl-4-[2-oxo-2-[[(1S)-1-tert-butylprop-2-ynyl]amino]acetyl]pyrrole-2-carboxamide] | < 1 | –
6 | C#C[C@@H](NC(=O)C(=O)c1c(C)c(C(=O)Nc2ccc(F)c(C#N)c2)n(C)c1C)C1COC1 [Compound 58, N-(3-cyano-4-fluoro-phenyl)-1,3,5-trimethyl-4-[2-oxo-2-[[(1S)-1-(oxetan-3-yl)prop-2-ynyl]amino]acetyl]pyrrole-2-carboxamide] | 1 to 10 | –
7 | C#CCNC(=O)C(=O)c1c(C)c(C(=O)Nc2ccc(F)c(C#N)c2)n(C)c1Cl [Compound 9, 5-chloro-N-(3-cyano-4-fluoro-phenyl)-1,3-dimethyl-4-[2-oxo-2-(prop-2-ynylamino)acetyl]pyrrole-2-carboxamide] | 1 to 10 | –
8 | Cc1c(C(=O)C(=O)NC(C)(C)c2cccnc2)c(C)n(C)c1C(=O)Nc1ccc(F)c(C(F)(F)F)c1 [Compound 100, N-[4-fluoro-3-(trifluoromethyl)phenyl]-1,3,5-trimethyl-4-[2-[[1-methyl-1-(3-pyridyl)ethyl]amino]-2-oxo-acetyl]pyrrole-2-carboxamide] | < 1 | –
9 | Cc1c(C(=O)C(=O)NC2(c3c[nH]nn3)COC2)c(C)n(C)c1C(=O)Nc1ccc(F)c(C#N)c1 [Compound 29, N-(3-cyano-4-fluoro-phenyl)-1,3,5-trimethyl-4-[2-oxo-2-[[3-(1H-triazol-4-yl)oxetan-3-yl]amino]acetyl]pyrrole-2-carboxamide] | – | 1 to 10
10 | C#CC1(NC(=O)C(=O)c2c(C)c(C(=O)Nc3ccc(F)c(C#N)c3)n(C)c2C)CCS(=O)(=O)CC1 [Compound 108, N-(3-cyano-4-fluoro-phenyl)-4-[2-[(4-ethynyl-1,1-dioxo-thian-4-y1)amino]-2-oxo-acetyl]-1,3,5-trimethyl-pyrrole-2-carboxamide] | 1 to 10 | –
11 | C#CC1(NC(=O)C(=O)c2c(C)c(C(=O)Nc3ccnc(Br)c3F)n(C)c2C)CC(F)(F)C1 [Compound 84, N-(2-bromo-3-fluoro-4-pyridyl)-4-[2-[(1-ethynyl-3,3-difluoro-cyclobutyl)amino]-2-oxo-acetyl]-1,3,5-trimethyl-pyrrole-2-carboxamide] | 1 to 10 | –
12 | C#CC1(NC(=O)C(=O)c2c(C)c(C(=O)Nc3ccc(F)c(F)c3)n(C)c2C)CCCCC1 [Compound 87, N-(3,4-difluorophenyl)-4-[2-[(1-ethynylcyclohexyl)amino]-2-oxo-acetyl]-1,3,5-trimethyl-pyrrole-2-carboxamide] | 1 to 10 | –
13 | C=CCNC(=O)C(=O)c1c(C)c(C(=O)Nc2ccc(F)c(C(F)(F)F)c2)n(C)c1C [Compound 2, 4-[2-(allylamino)-2-oxo-acetyl]-N-[4-fluoro-3-(trifluoromethyl)phenyl]-1,3,5-trimethyl-pyrrole-2-carboxamide] | 1 to 10 | –
14 | C=CC1(NC(=O)C(=O)c2c(C)c(C(=O)Nc3ccc(F)c(C#N)c3)n(C)c2Cl)COC1 [Compound 41, 5-chloro-N-(3-cyano-4-fluoro-phenyl)-1,3-dimethyl-4-[2-oxo-2-[(3-vinyloxetan-3-yl)amino]acetyl]pyrrole-2-carboxamide] | 1 to 10 | –
15 | Cc1c(C(=O)C(=O)NC2(c3ccncc3)CC(F)(F)C2)c(C)n(C)c1C(=O)Nc1ccc(F)c(C(F)(F)F)c1 [Compound 150, 4-[2-[[3,3-difluoro-1-(4-pyridyl)cyclobutyl]amino]-2-oxo-acetyl]-N-[4-fluoro-3-(trifluoromethyl)phenyl]-1,3,5-trimethyl-pyrrole-2-carboxamide] | < 1 | –
16 | C#C[C@@H](CO)NC(=O)C(=O)c1c(C)c(C(=O)Nc2ccc(F)c(C#N)c2)n(C)c1C (single isomer, unassigned) [Compound 31a] | 1 to 10 | –
17 | C#C[C@@](CO)(NC(=O)C(=O)c1c(C)c(C(=O)Nc2ccc(F)c(C#N)c2)n(C)c1C)C1CC1 [Compound 63b, N-(3-cyano-4-fluoro-phenyl)-1,3,5-trimethyl-4-[2-oxo-2-[[(1S)-1-cyclopropyl-1-(hydroxymethyl)prop-2-ynyl]amino]acetyl]pyrrole-2-carboxamide] | 1 to 10 | –
18 | Cc1c(C(=O)C(=O)NC2(c3cnn(C4CC4)n3)CC(F)(F)C2)c(C)n(C)c1C(=O)Nc1ccc(F)c(C(F)(F)F)c1 [Compound 142, 4-[2-[[1-(2-cyclopropyltriazol-4-yl)-3,3-difluoro-cyclobutyl]amino]-2-oxo-acetyl]-N-[4-fluoro-3-(trifluoromethyl)phenyl]-1,3,5-trimethyl-pyrrole-2-carboxamide] | – | 1 to 10
19 | C#C[C@H](NC(=O)C(=O)c1c(C)c(C(=O)Nc2ccc(F)c(C#N)c2)n(C)c1C)C(C)(C)C [Compound 30a, N-(3-cyano-4-fluoro-phenyl)-1,3,5-trimethyl-4-[2-oxo-2-[[(1R)-1-tert-butylprop-2-ynyl]amino]acetyl]pyrrole-2-carboxamide] | < 1 | –
20 | Cc1c(C(=O)C(=O)NC(C)(C)c2cnn(C)c2)c(C)n(C)c1C(=O)Nc1ccc(F)c(C#N)c1 [Compound 70, N-(3-cyano-4-fluoro-phenyl)-1,3,5-trimethyl-4-[2-[[1-methyl-1-(1-methylpyrazol-4-yl)ethyl]amino]-2-oxo-acetyl]pyrrole-2-carboxamide] | 1 to 10 | –
21 | C#CC1(NC(=O)C(=O)c2c(F)c(C(=O)Nc3ccc(F)c(C#N)c3)n(C)c2C)CC(F)(F)C1 [Compound 56, N-(3-cyano-4-fluoro-phenyl)-4-[2-[(1-ethynyl-3,3-difluoro-cyclobutyl)amino]-2-oxo-acetyl]-3-fluoro-1,5-dimethyl-pyrrole-2-carboxamide] | < 1 | –
22 | Cc1cc(NC(=O)c2c(C)c(C(=O)C(=O)NC(C)(C)c3ccc4[nH]cnc4c3)c(C)n2C)ccc1F [Compound 162, 4-[2-[[1-(1H-benzimidazol-5-yl)-1-methyl-ethyl]amino]-2-oxo-acetyl]-N-(4-fluoro-3-methyl-phenyl)-1,3,5-trimethyl-pyrrole-2-carboxamide] | 1 to 10 | –
23 | C=C[C@@](CO)(NC(=O)C(=O)c1c(C)c(C(=O)Nc2ccc(F)c(C(F)(F)F)c2)n(C)c1C)C(F)(F)F [Compound 80b, N-[4-fluoro-3-(trifluoromethyl)phenyl]-1,3,5-trimethyl-4-[2-oxo-2-[[(1S)-1-(hydroxymethyl)-1-(trifluoromethyl)allyl]amino]acetyl]pyrrole-2-carboxamide] | 1 to 10 | –
24 | C#CC(C)(CC)NC(=O)C(=O)c1c(C)c(C(=O)Nc2ccc(F)c(F)c2)n(C)c1C (stereo not shown) [Compound 88, N-(3,4-difluorophenyl)-4-[2-[(1-ethyl-1-methyl-prop-2-ynyl)amino]-2-oxo-acetyl]-1,3,5-trimethyl-pyrrole-2-carboxamide] | 1 to 10 | –
25 | Cc1c(C(=O)C(=O)NC(C)(C)c2ccnn2C)c(C)n(C)c1C(=O)Nc1ccc(F)c(C(F)(F)F)c1 [Compound 138, N-[4-fluoro-3-(trifluoromethyl)phenyl]-1,3,5-trimethyl-4-[2-[[1-methyl-1-(2-methylpyrazol-3-yl)ethyl]amino]-2-oxo-acetyl]pyrrole-2-carboxamide] | 1 to 10 | –
